Test: recombinant UMI read abundance after kanamycin selection (control-corrected) (log10(CPM+1)); higher = more efficient recombination; extreme values may be limits of the assay; sequences stand for … in AGTGCAGAGAAAATCGGCCAGTTTTCTCTGCCTGCAGTCCGCATGCCGTGGGACCCCTTGGGTTCTAACCTGTTGCCTAGATTTATGCAGCGGACTGCCTTTCTCCCAAAGTGATAAACCGG…AGGTTGGTTTCACT; site = the 11-nt donor
Protocol: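 Pooled E. coli donor-specificity screen for the IS621 bridge recombinase. Each library member carries a reprogrammed 11-nt donor and a full-length LE bridge RNA expressed in cis from the natural promoter, with a paired donor-binding loop (8-nt LDG + 4-nt RDG) and a target-binding loop fixed to T5. It is co-electroporated with a T5 target plasmid; recombinase is induced with 0.07 mM IPTG and recombinants are selected on kanamycin. UMIs are counted as CPM, averaged over two biological replicates and corrected by the unselected control. Molecule = full bridge RNA written as DNA, built from the T5 scaffold: LDG = donor specificity nt 1-8, RDG = reverse complement of nt 8-11.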
With “ACGAAGACATGGACCGGTTTTCCCGGTAATCCGTATTTGCG (site AGGAAGACTTG)” the “recombinant UMI read abundance (log10)” value was 0. With “ACGAAGTCATGGACCGGTTTTCCCGGTAATCCGTATTTGGG (site ACGAAGTCTCC)” the “recombinant UMI read abundance (log10)” value was 0.574. For “ACGAATTCATGGACCGGTTTTCCCGGTAATCCGTATTTGCG (site ACGAATTCTCG)”, the “recombinant UMI read abundance (log10)” value was 2.06. With “ACGACTTCATGGACCGGTTTTCCCGGTAATCCGTATTTGTT (site ACGACTTCTAA)” the “recombinant UMI read abundance (log10)” value was 1.23. For “ACGAGAACATGGACCGGTTTTCCCGGTAATCCGTATTTGTT (site ACGAGAACTAA)”, the “recombinant UMI read abundance (log10)” value was 2.8. With “ACGCAACCATGGACCGGTTTTCCCGGTAATCCGTATTTGAA (site ACGCAACCTTT)” the “recombinant UMI read abundance (log10)” value was 0. For “ACGCGGACATGGACCGGTTTTCCCGGTAATCCGTATTTGTG (site ACGCGGACTCA)”, the “recombinant UMI read abundance (log10)” value was 1.74. For “ACGCGTCCATGGACCGGTTTTCCCGGTAATCCGTATTTGTG (site ACGCGTCCTCA)”, the “recombinant UMI read abundance (log10)” value was 0.257. In the case of “ACGCGTGCATGGACCGGTTTTCCCGGTAATCCGTATTTGAC (site ACGCGTGCTGT)”, the “recombinant UMI read abundance (log10)” value is reported as 2.96. In the case of “ACGCTATCATGGACCGGTTTTCCCGGTAATCCGTATTTGCA (site ACAGTATCTTG)”, the “recombinant UMI read abundance (log10)” value is reported as 1.92. With “ACGCTATCATGGACCGGTTTTCCCGGTAATCCGTATTTGCA (site ACGCTATCTTG)” the “recombinant UMI read abundance (log10)” value was 2.75. With “ACGGACACATGGACCGGTTTTCCCGGTAATCCGTATTTGGT (site ACGGACACTAC)” the “recombinant UMI read abundance (log10)” value was 1.82. For “ACGGCCTCATGGACCGGTTTTCCCGGTAATCCGTATTTGGG (site ACGGCCTCTCC)”, the “recombinant UMI read abundance (log10)” value was 0.0343. In the case of “ACGGGCGCATGGACCGGTTTTCCCGGTAATCCGTATTTGAG (site ACGGGCGCTCT)”, the “recombinant UMI read abundance (log10)” value is reported as 1.15. In the case of “ACGGTATCATGGACCGGTTTTCCCGGTAATCCGTATTTGCA (site ACAGTATCTTG)”, the “recombinant UMI read abundance (log10)” value is reported as 2.96. In the case of “ACGGTATCATGGACCGGTTTTCCCGGTAATCCGTATTTGCA (site ACCGTATCTTG)”, the “recombinant UMI read abundance (log10)” value is reported as 1.92. For “ACGGTATCATGGACCGGTTTTCCCGGTAATCCGTATTTGCA (site ACGGTATCTTG)”, the “recombinant UMI read abundance (log10)” value was 3.16. In the case of “ACGGTATCATGGACCGGTTTTCCCGGTAATCCGTATTTGCA (site ACTGTATCTTG)”, the “recombinant UMI read abundance (log10)” value is reported as 2.32. For “ACGGTTTCATGGACCGGTTTTCCCGGTAATCCGTATTTGCA (site ACAGTATCTTG)”, the “recombinant UMI read abundance (log10)” value was 2.71. With “ACGGTTTCATGGACCGGTTTTCCCGGTAATCCGTATTTGCA (site ACGGTTTCTTG)” the “recombinant UMI read abundance (log10)” value was 2.34. In the case of “ACGTCCTCATGGACCGGTTTTCCCGGTAATCCGTATTTGGT (site ACGTCCTCTAC)”, the “recombinant UMI read abundance (log10)” value is reported as 1.51. With “ACGTGTGCATGGACCGGTTTTCCCGGTAATCCGTATTTGGT (site ACGTGTGCTAC)” the “recombinant UMI read abundance (log10)” value was 1.99. In the case of “ACTAGAACATGGACCGGTTTTCCCGGTAATCCGTATTTGAG (site AATAGAACTCT)”, the “recombinant UMI read abundance (log10)” value is reported as 0.839. In the case of “ACTAGAACATGGACCGGTTTTCCCGGTAATCCGTATTTGAG (site ACAAGAACTCT)”, the “recombinant UMI read abundance (log10)” value is reported as 1.26. With “ACTAGAACATGGACCGGTTTTCCCGGTAATCCGTATTTGAG (site ACCAGAACTCT)” the “recombinant UMI read abundance (log10)” value was 1.23. With “ACTAGAACATGGACCGGTTTTCCCGGTAATCCGTATTTGAG (site ACGAGAACTCT)” the “recombinant UMI read abundance (log10)” value was 0.424. In the case of “ACTAGAACATGGACCGGTTTTCCCGGTAATCCGTATTTGAG (site ACTAAAACTCT)”, the “recombinant UMI read abundance (log10)” value is reported as 0.908. For “ACTAGAACATGGACCGGTTTTCCCGGTAATCCGTATTTGAG (site ACTACAACTCT)”, the “recombinant UMI read abundance (log10)” value was 0.383. In the case of “ACTAGAACATGGACCGGTTTTCCCGGTAATCCGTATTTGAG (site ACTAGAACTAT)”, the “recombinant UMI read abundance (log10)” value is reported as 0. For “ACTAGAACATGGACCGGTTTTCCCGGTAATCCGTATTTGAG (site ACTAGAACTCA)”, the “recombinant UMI read abundance (log10)” value was 0.00396. With “ACTAGAACATGGACCGGTTTTCCCGGTAATCCGTATTTGAG (site ACTAGAACTCC)” the “recombinant UMI read abundance (log10)” value was 0.0223. With “ACTAGAACATGGACCGGTTTTCCCGGTAATCCGTATTTGAG (site ACTAGAACTCG)” the “recombinant UMI read abundance (log10)” value was 0. In the case of “ACTAGAACATGGACCGGTTTTCCCGGTAATCCGTATTTGAG (site ACTAGAACTCT)”, the “recombinant UMI read abundance (log10)” value is reported as 1.72. For “ACTAGAACATGGACCGGTTTTCCCGGTAATCCGTATTTGAG (site ACTAGAACTGT)”, the “recombinant UMI read abundance (log10)” value was 0. With “ACTAGAACATGGACCGGTTTTCCCGGTAATCCGTATTTGAG (site ACTAGAACTTT)” the “recombinant UMI read abundance (log10)” value was 0.286. With “ACTAGAACATGGACCGGTTTTCCCGGTAATCCGTATTTGAG (site ACTAGACCTCT)” the “recombinant UMI read abundance (log10)” value was 0.00567.
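Also: IS621 bridge recombinase in Escherichia coli cells against a fixed T5 target plasmid.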
